One data set concerns the target T1, COX-1 (Ovis aries, UniProt P05979).
T1 construct: purchased Cayman Chemicals (bought through Sigma-Aldrich) 560131
T1 sequence (P05979 25-600): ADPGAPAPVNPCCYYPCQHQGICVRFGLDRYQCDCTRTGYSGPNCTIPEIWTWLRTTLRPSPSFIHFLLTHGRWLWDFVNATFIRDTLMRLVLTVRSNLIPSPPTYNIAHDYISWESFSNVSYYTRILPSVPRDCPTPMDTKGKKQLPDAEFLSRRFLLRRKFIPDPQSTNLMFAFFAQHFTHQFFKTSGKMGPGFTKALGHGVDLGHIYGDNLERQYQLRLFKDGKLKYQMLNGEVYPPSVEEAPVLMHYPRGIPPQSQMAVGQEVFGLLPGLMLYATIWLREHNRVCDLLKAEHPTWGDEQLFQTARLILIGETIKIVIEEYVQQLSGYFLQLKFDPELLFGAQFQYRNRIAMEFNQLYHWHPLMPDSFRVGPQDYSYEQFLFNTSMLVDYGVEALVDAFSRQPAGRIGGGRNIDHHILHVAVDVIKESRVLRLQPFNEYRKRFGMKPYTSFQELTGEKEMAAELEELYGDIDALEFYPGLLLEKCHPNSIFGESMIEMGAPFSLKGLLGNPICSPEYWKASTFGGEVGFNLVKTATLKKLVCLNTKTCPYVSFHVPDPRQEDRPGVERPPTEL
The data set can be described thus: COX-1 inhibition, COX (ovine/human) inhibitor screening assay kit. In kind it is biochemical. Conditions: for inhibition at 50 µM: at 50 µM compound final concentration, read-out: COX-1 % inhib. Here is the method:
(§1) Cell culture reagents were purchased from Euroclone (Milan, Italy). COX (ovine/human) inhibitor screening assay kit (Catalog No. 560131, Cayman Chemicals, Ann Arbor, MI, USA) was purchased from Sigma-Aldrich, Burlington, MA, USA. […] The other reagents were purchased from Sigma-Aldrich, Burlington, MA, USA.
(§2) The COX-1/2 inhibition screening experiments were carried out according to the manufacturer’s instructions. The plate was incubated for 60 min at r.t. under shaking and read with the Tecan Infinite 200 Microplate Reader at λ = 405 nm.
(§3) The graph between percent inhibition of the enzyme and corresponding concentration of the compound provided IC50 values for the probe compounds.

For the next data set, the target named is T2, COX-2 (Homo sapiens, UniProt P35354).
T2 construct: purchased Cayman Chemicals (bought through Sigma-Aldrich) 560131
T2 sequence (P35354 18-604): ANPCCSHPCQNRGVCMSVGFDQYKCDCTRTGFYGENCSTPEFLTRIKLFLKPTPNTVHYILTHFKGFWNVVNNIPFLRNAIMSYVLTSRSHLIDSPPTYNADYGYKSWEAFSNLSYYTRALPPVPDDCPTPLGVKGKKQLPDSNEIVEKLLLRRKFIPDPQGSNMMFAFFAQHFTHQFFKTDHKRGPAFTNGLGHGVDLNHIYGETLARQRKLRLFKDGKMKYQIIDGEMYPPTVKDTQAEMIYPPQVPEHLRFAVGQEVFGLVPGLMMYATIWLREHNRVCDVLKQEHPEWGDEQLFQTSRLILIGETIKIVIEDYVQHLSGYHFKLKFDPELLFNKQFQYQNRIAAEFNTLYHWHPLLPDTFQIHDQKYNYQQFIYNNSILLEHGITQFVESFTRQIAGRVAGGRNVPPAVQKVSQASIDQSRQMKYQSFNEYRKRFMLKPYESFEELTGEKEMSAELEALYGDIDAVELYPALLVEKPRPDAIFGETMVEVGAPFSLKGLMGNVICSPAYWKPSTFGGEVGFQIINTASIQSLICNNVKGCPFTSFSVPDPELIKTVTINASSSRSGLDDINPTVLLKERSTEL
The data set can be described thus: COX-2 inhibition, COX (ovine/human) inhibitor screening assay kit. Conditions: for COX-2 inhibitory activity (in words): up to 50 µM final concentration. The format is biochemical. As for the experimental part: as §1, §2, §3

Data set [1] can be described thus: Fluorescence property measurements (absorption/emission spectra). The format is physicochemical. Set-up: Stokes Shift: unit not given here. As for the experimental part:
The λabs and λem, of the target compounds were measured in aqueous solution (phosphate-buffered saline solution, PBS) at the concentration of 10^−5 M (Table 1).
Fluorescence spectra of all target compounds were determined in PBS and EtOH solutions (Table 1) with a Tecan Infinite 200 Microplate Reader. In all experiments, the excitation and the emission bandpass were set at λ = 5 nm. The emission spectra were obtained from λ = 280 to 850 nm, with excitation set at the appropriate excitation wavelength. Absorption spectra were recorded with a Shimadzu UV-1800 spectrophotometer.

Structures are written as SMILES. Where a name gives a salt, the structure may show the parent alone. Marks after values point to notes of the source that are not given here.

In the case of `COc1ccc(-c2noc(CC(=O)NCCCCCCNc3ccc([N+](=O)[O-])c4nonc34)c2-c2ccc(OC)cc2)cc1` [Compound 13b, 2-(3,4-Bis(4-methoxyphenyl)isoxazol-5-yl)-N-(6-((7-nitrobenzo[c][1,2,5]oxadiazol-4-yl)amino)hexyl)acetamide], on COX-1, the IC50 was over 50 µM and the inhibition at 50 µM came out at 26%. At COX-2, this compound returned a half-inhibitory concentration (IC50) of over 50 µM. In data set [1] (PBS solution, 10^−5 M), the “Stokes Shift” value is recorded as 64, the λabs was 490 nm and the λem is given as 554 nm.
The compound `CCCN1C(=O)c2cccc3c(NCCCCCCNC(=O)Cc4onc(-c5ccc(OC)cc5)c4-c4ccc(OC)cc4)ccc(c23)C1=O` [Compound 17a, 2-(3,4-Bis(4-methoxyphenyl)isoxazol-5-yl)-N-(6-((1,3-dioxo-2-propyl-2,3-dihydro-1H-benzo[de]isoquinolin-6-yl)amino)hexyl)acetamide] returned a melting point of 110 to 111 °C. Moreover, on COX-1, the half-inhibitory concentration (IC50) is 0.08 µM, the “SI (selectivity index)” value is over 625 and the inhibition at 50 µM came to 51%. Also, on COX-2, the IC50 was over 50 µM and the “COX-2 inhibitory activity (in words)” value was “almost inactive”. Further, in data set [1] (PBS solution, 10^−5 M), the “Stokes Shift” value is on record as 96, the λabs amounted to 450 nm and the λem is recorded as 546 nm.
As to `COc1ccc(-c2noc(CC(=O)NCCCCCCCCCCCCNc3ccc([N+](=O)[O-])c4nonc34)c2-c2ccc(OC)cc2)cc1` [Compound 13c, 2-(3,4-Bis(4-methoxyphenyl)isoxazol-5-yl)-N-(12-((7-nitrobenzo[c][1,2,5]oxadiazol-4-yl)amino)dodecyl)acetamide], on COX-1, the half-maximal inhibitory concentration (IC50) was over 50 µM and the inhibition at 50 µM turned out to be 28%. At COX-2, the IC50 is over 50 µM. Besides, in data set [1] (PBS solution, 10^−5 M), the “Stokes Shift” value is 55, the λabs is reported as 495 nm and the λem came out at 550 nm.
For the compound `COc1ccc(-c2noc(CC(=O)NCCCCNc3ccc([N+](=O)[O-])c4nonc34)c2-c2ccc(OC)cc2)cc1` [Compound 13a, 2-(3,4-Bis(4-methoxyphenyl)isoxazol-5-yl)-N-(4-((7-nitrobenzo[c][1,2,5]oxadiazol-4-yl)amino)butyl)acetamide], the melting point was 165 °C (dec.). On COX-1, the IC50 is over 50 µM and the inhibition at 50 µM was determined as 0%. In addition, the IC50 on COX-2 is over 50 µM. Besides, in data set [1] (PBS solution, 10^−5 M), the “Stokes Shift” value is reported as 82, the λabs is given as 482 nm and the λem amounted to 564 nm.
In turn, `COc1ccc(-c2noc(CC(=O)Nc3ccc(NS(=O)(=O)c4cccc5c(N(C)C)cccc45)cc3)c2-c2ccc(OC)cc2)cc1` [Compound 3b, 2-[3,4-Bis(4-methoxyphenyl)isoxazol-5-yl]-N-{4-[(5-dimethylaminonaphthalene)-1-sulfonamido]phenyl}acetamide] returned a melting point of 120 to 122 °C. Further, at COX-1, the half-inhibitory concentration (IC50) was determined as 0.05 µM, the “SI (selectivity index)” value was over 1000 and the inhibition at 50 µM amounted to 44%. The same compound yielded an IC50 against COX-2 of over 50 µM. Further, in data set [1] (PBS solution, 10^−5 M), the “Stokes Shift” value came out at 154, the λabs is reported as 360 nm and the λem is 514 nm.
Consider `COc1ccc(-c2noc(CC(=O)NCCCCCCNS(=O)(=O)c3cccc4c(N(C)C)cccc34)c2-c2ccc(OC)cc2)cc1` [Compound 6a], for which the melting point is 66 to 69 °C. Further, at COX-1, it took 12 µM to reach half-maximal inhibition (IC50), the “SI (selectivity index)” value was over 4 and the inhibition at 50 µM was 74%. For the same compound, the IC50 against COX-2 was over 50 µM. Moreover, in data set [1] (ethanol (10^−5 M)), the “Stokes Shift” value amounted to 273, the λabs is on record as 248 ^b nm and the λem is 521 ^b nm.
As to `COc1ccc(-c2noc(CC(=O)NCCCCCCCCCCCCNS(=O)(=O)c3cccc4c(N(C)C)cccc34)c2-c2ccc(OC)cc2)cc1` [Compound 6b, 2-[3,4-Bis(4-methoxyphenyl)-5-yl]-N-{4-[(5-dimethylaminonaphthalene)-1-sulfonamido]dodecyl}acetamide], the melting point lay in the range of 126 to 129 °C. Further, at COX-1, 0.1 µM corresponded to half-maximal inhibition (IC50), the “SI (selectivity index)” value is over 500 and the inhibition at 50 µM stood at 71%. Moreover, on COX-2, the IC50 is over 50 µM. In data set [1] (PBS solution, 10^−5 M), the “Stokes Shift” value was determined as 222, the λabs amounted to 270 nm and the λem came to 492 nm.
Compound `COc1ccc(-c2noc(CC(=O)Nc3ccc(-c4ccc(NS(=O)(=O)c5cccc6c(N(C)C)cccc56)cc4)cc3)c2-c2ccc(OC)cc2)cc1` [Compound 3c, 2-[3,4-Bis(4-methoxyphenyl)isoxazol-5-yl]-N-{4-[(5-dimethylaminonaphthalene)-1-sulfonamido]biphenyl}acetamide] returned a melting point of 240 to 241 °C. Moreover, at COX-1, the IC50 is 0.06 µM, the “SI (selectivity index)” value was over 833 and the inhibition at 50 µM was determined as 71%. On COX-2, this compound displayed a 50% inhibitory concentration (IC50) of over 50 µM. In data set [1] (PBS solution, 10^−5 M), the “Stokes Shift” value is 217, the λabs was found to be 287 nm and the λem was found to be 504 nm.
As for `CCN1/C(=C/C=C/C=C/C=C/C2=[N+](CCCCCC(=O)NCCCCNC(=O)Cc3onc(-c4ccc(OC)cc4)c3-c3ccc(OC)cc3)c3ccc4ccccc4c3C2(C)C)C(C)(C)c2c1ccc1ccccc21` (as salt: chloride) [23 (MSA14), 3-(6-(4-(2-(3,4-Bis(4-methoxyphenyl)isoxazole-5-yl)acetamido)butyl)amino-6-oxohexyl)-2-[7-(1,3-dihydro-1,1-dimethyl-3-ethyl-2H-benz[e]indolin-2-yl-idene)-1,3,5-heptatrienyl]-1,1-dimethyl-3-(6-carboxilato-hexyl)-1H-benz[e]indolium chloride], the melting point was 220 °C (dec.).
Regarding `COc1ccc(-c2noc(CC(=O)NCCCCNS(=O)(=O)c3cccc4c(N(C)C)cccc34)c2-c2ccc(OC)cc2)cc1` [Compound 3a, 2-[3,4-Bis(4-methoxyphenyl)isoxazol-5-yl]-N-{4-[(5-dimethylaminonaphthalene)-1-sulfonamido]butyl}acetamide], the melting point lay within 69 to 71 °C. In addition, at COX-1, the “COX-1 inhibitory activity (in words)” value was “almost inactive”, the IC50 was over 50 µM and the inhibition at 50 µM was 45%. Besides, at COX-2, the concentration for half-maximal inhibition (IC50) is over 50 µM and the “COX-2 inhibitory activity (in words)” value was “almost inactive”. Moreover, in data set [1] (PBS solution, 10^−5 M), the “Stokes Shift” value is 264, the λabs stood at 230 nm and the λem was 494 nm.
For `COc1ccc(-c2noc(CC(=O)Nc3ccc(NC(=O)CCCCCCCCCCNS(=O)(=O)c4cccc5c(N(C)C)cccc45)cc3)c2-c2ccc(OC)cc2)cc1` [Compound 9], the melting point lay in the range of 140 to 143 °C. Besides, at COX-1, the IC50 stood at 0.7 µM, the “SI (selectivity index)” value is given as over 71 and the inhibition at 50 µM stood at 83%. The half-inhibitory concentration (IC50) against COX-2 was over 50 µM. Moreover, in data set [1] (PBS solution, 10^−5 M), the “Stokes Shift” value amounted to 222, the λabs is on record as 274 nm and the λem came to 496 nm.

The values are drawn from paper PMC9230671, “Fluorochrome Selection for Imaging Intraoperative Ovarian Cancer Probes” (Pharmaceuticals, 2022).
